Data from PubChem BioAssay (NCI).
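Following 48 hours of exposure in 96-well plates, responses at five concentrations were used to interpolate endpoints linearly. GI50 marks 50% less growth. At the TGI there is no net growth.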

What was measured:
Test in all cases: inhibition of tumour cell growth, NCI panel, 48 h; in the data active = GI50 below about 0.43 µM; inactive = the rest
NCI-H226 lung = system: NCI-H226 lung
T-47D breast = system: T-47D breast
CAKI-1 renal = system: CAKI-1 renal
U251 CNS = system: U251 CNS
SF-295 CNS = system: SF-295 CNS
MALME-3M melanoma = system: MALME-3M melanoma
MDA-MB-435 = system: MDA-MB-435
SF-539 CNS = system: SF-539 CNS
UO-31 renal = system: UO-31 renal
IGROV1 ovarian = system: IGROV1 ovarian
HCT-15 colon = system: HCT-15 colon
K-562 leukemia = system: K-562 leukemia
OVCAR-4 ovarian = system: OVCAR-4 ovarian
RXF 393 renal = system: RXF 393 renal
UACC-257 melanoma = system: UACC-257 melanoma
TK-10 renal = system: TK-10 renal
BT-549 breast = system: BT-549 breast
MDA-MB-231 breast = system: MDA-MB-231 breast
EKVX NSCLC = system: EKVX NSCLC
SK-MEL-5 melanoma = system: SK-MEL-5 melanoma
COLO 205 colon = system: COLO 205 colon
A498 renal = system: A498 renal
SK-MEL-28 melanoma = system: SK-MEL-28 melanoma
OVCAR-5 ovarian = system: OVCAR-5 ovarian
NCI-H522 lung = system: NCI-H522 lung
A549 NSCLC = system: A549 NSCLC
DU-145 prostate = system: DU-145 prostate
RPMI-8226 leukemia = system: RPMI-8226 leukemia
SNB-19 CNS = system: SNB-19 CNS
OVCAR-8 ovarian = system: OVCAR-8 ovarian
MOLT-4 leukemia = system: MOLT-4 leukemia
SF-268 CNS = system: SF-268 CNS
HS 578T breast = system: HS 578T breast
786-0 renal = system: 786-0 renal
HT29 colon = system: HT29 colon
CCRF-CEM leukemia = system: CCRF-CEM leukemia
SNB-75 CNS = system: SNB-75 CNS
SW-620 colon = system: SW-620 colon
NCI-H23 lung = system: NCI-H23 lung
SN12C renal = system: SN12C renal
HOP-62 NSCLC = system: HOP-62 NSCLC
HCT-116 colon = system: HCT-116 colon
SK-MEL-2 melanoma = system: SK-MEL-2 melanoma
PC-3 prostate = system: PC-3 prostate
NCI/ADR-RES ovarian = system: NCI/ADR-RES ovarian
LOX IMVI melanoma = system: LOX IMVI melanoma
NCI-H460 lung = system: NCI-H460 lung
OVCAR-3 ovarian = system: OVCAR-3 ovarian
HOP-92 NSCLC = system: HOP-92 NSCLC
SK-OV-3 ovarian = system: SK-OV-3 ovarian
HCC-2998 colon = system: HCC-2998 colon
MCF7 breast = system: MCF7 breast
ACHN renal = system: ACHN renal
KM12 colon = system: KM12 colon
UACC-62 melanoma = system: UACC-62 melanoma
HL-60(TB) leukemia = system: HL-60(TB) leukemia
M14 melanoma = system: M14 melanoma

C=C(Cn1c(=O)c2ccccc2c2ccccc21)c1ccc(C(=O)Nc2ccccc2N)cc1
> 57.8 µM: TGI (NCI/ADR-RES ovarian)
> 63.2 µM: TGI (UO-31 renal)
> 94.4 µM: TGI (NCI-H522 lung) | TGI (SNB-75 CNS)
> 100 µM: TGI (NCI-H226 lung) | TGI (CAKI-1 renal) | TGI (U251 CNS) | TGI (SF-295 CNS) | TGI (MDA-MB-435) | TGI (SF-539 CNS) | TGI (HCT-15 colon) | TGI (OVCAR-4 ovarian) | TGI (UACC-257 melanoma) | TGI (TK-10 renal) | TGI (EKVX NSCLC) | TGI (SK-MEL-5 melanoma) | TGI (COLO 205 colon) | TGI (A498 renal) | TGI (SK-MEL-28 melanoma) | TGI (OVCAR-5 ovarian) | TGI (A549 NSCLC) | TGI (DU-145 prostate) | TGI (SNB-19 CNS) | TGI (OVCAR-8 ovarian) | TGI (SF-268 CNS) | TGI (HS 578T breast) | TGI (786-0 renal) | TGI (SW-620 colon) | TGI (NCI-H23 lung) | TGI (SN12C renal) | TGI (HOP-62 NSCLC) | TGI (HCT-116 colon) | TGI (SK-MEL-2 melanoma) | TGI (LOX IMVI melanoma) | TGI (NCI-H460 lung) | TGI (OVCAR-3 ovarian) | TGI (SK-OV-3 ovarian) | TGI (HCC-2998 colon) | TGI (MCF7 breast) | TGI (ACHN renal) | TGI (KM12 colon) | TGI (UACC-62 melanoma) | TGI (M14 melanoma)
> 92.8 µM: TGI (MALME-3M melanoma)
97.7 µM: TGI (BT-549 breast)
> 83.8 µM: TGI (HT29 colon)
4.36 µM: TGI (RPMI-8226 leukemia)
> 29 µM: TGI (IGROV1 ovarian)
4.13 µM: TGI (CCRF-CEM leukemia)
> 68.5 µM: TGI (RXF 393 renal)
> 79.4 µM: TGI (PC-3 prostate)
> 27.8 µM: TGI (MDA-MB-231 breast)
0.196 µM: TGI (MOLT-4 leukemia)
active: GI50 (MOLT-4 leukemia) 0.0415 µM | GI50 (HL-60(TB) leukemia) 0.188 µM
26.1 µM: TGI (HOP-92 NSCLC)
inactive: GI50 (NCI-H226 lung) 16.7 µM | GI50 (T-47D breast) 3.86 µM | GI50 (CAKI-1 renal) 23.3 µM | GI50 (U251 CNS) 16.3 µM | GI50 (SF-295 CNS) > 79.7 µM | GI50 (MALME-3M melanoma) 5.19 µM | GI50 (MDA-MB-435) 24.2 µM | GI50 (SF-539 CNS) 21.9 µM | GI50 (UO-31 renal) 2.28 µM | GI50 (IGROV1 ovarian) 1.36 µM | GI50 (HCT-15 colon) 33.5 µM | GI50 (K-562 leukemia) 0.781 µM | GI50 (OVCAR-4 ovarian) 5.22 µM | GI50 (RXF 393 renal) 5.21 µM | GI50 (UACC-257 melanoma) > 41.4 µM | GI50 (TK-10 renal) 33.8 µM | GI50 (BT-549 breast) 14.8 µM | GI50 (MDA-MB-231 breast) 1.75 µM | GI50 (EKVX NSCLC) > 59.8 µM | GI50 (SK-MEL-5 melanoma) 20.6 µM | GI50 (COLO 205 colon) 45.1 µM | GI50 (A498 renal) 30.6 µM | GI50 (SK-MEL-28 melanoma) > 37.8 µM | GI50 (OVCAR-5 ovarian) > 100 µM | GI50 (NCI-H522 lung) 4.55 µM | GI50 (A549 NSCLC) > 48.3 µM | GI50 (DU-145 prostate) > 45.9 µM | GI50 (RPMI-8226 leukemia) 0.765 µM | GI50 (SNB-19 CNS) 42.9 µM | GI50 (OVCAR-8 ovarian) 11.8 µM | GI50 (SF-268 CNS) 12.6 µM | GI50 (HS 578T breast) 58.2 µM | GI50 (786-0 renal) 5.95 µM | GI50 (HT29 colon) 13.3 µM | GI50 (CCRF-CEM leukemia) 0.466 µM | GI50 (SNB-75 CNS) 4.41 µM | GI50 (SW-620 colon) 58.7 µM | GI50 (NCI-H23 lung) 30.3 µM | GI50 (SN12C renal) 11.3 µM | GI50 (HOP-62 NSCLC) 40.9 µM | GI50 (HCT-116 colon) 15.2 µM | GI50 (SK-MEL-2 melanoma) > 86.3 µM | GI50 (PC-3 prostate) 4.37 µM | GI50 (NCI/ADR-RES ovarian) 3.78 µM | GI50 (LOX IMVI melanoma) 7.77 µM | GI50 (NCI-H460 lung) 21.3 µM | GI50 (OVCAR-3 ovarian) 33.7 µM | GI50 (HOP-92 NSCLC) 0.689 µM | GI50 (SK-OV-3 ovarian) 24.3 µM | GI50 (HCC-2998 colon) 31.1 µM | GI50 (MCF7 breast) 69.8 µM | GI50 (ACHN renal) 43.4 µM | GI50 (KM12 colon) 25.6 µM | GI50 (UACC-62 melanoma) 24.1 µM | GI50 (M14 melanoma) > 19.8 µM
> 69.3 µM: TGI (T-47D breast)

CC1=C([Se]CC(OC(=O)[C@@H](CSSC(C)(C)C)NC(=O)OC(C)(C)C)C(=O)NC(C)(C)C)C(=O)c2ccccc2C1=O (stereo partly drawn)
2.59 µM: TGI (SNB-75 CNS)
3.01 µM: TGI (786-0 renal)
2.73 µM: TGI (OVCAR-8 ovarian) | TGI (SW-620 colon)
3.12 µM: TGI (HCT-15 colon) | TGI (MCF7 breast)
2.98 µM: TGI (SK-MEL-28 melanoma)
2.62 µM: TGI (K-562 leukemia)
3.11 µM: TGI (EKVX NSCLC)
2.82 µM: TGI (RXF 393 renal)
1.69 µM: TGI (SNB-19 CNS)
2.88 µM: TGI (SK-MEL-2 melanoma)
2.76 µM: TGI (MDA-MB-231 breast)
6.3 µM: TGI (HT29 colon)
3.48 µM: TGI (T-47D breast)
2.99 µM: TGI (NCI-H522 lung)
2.74 µM: TGI (SF-539 CNS) | TGI (SN12C renal)
2.79 µM: TGI (LOX IMVI melanoma)
3.02 µM: TGI (CAKI-1 renal)
2.36 µM: TGI (IGROV1 ovarian)
4.61 µM: TGI (NCI-H23 lung)
inactive: GI50 (T-47D breast) 1.44 µM | GI50 (CAKI-1 renal) 1.66 µM | GI50 (U251 CNS) 0.675 µM | GI50 (SF-295 CNS) 1.22 µM | GI50 (MALME-3M melanoma) 1.18 µM | GI50 (MDA-MB-435) 1.64 µM | GI50 (SF-539 CNS) 1.43 µM | GI50 (IGROV1 ovarian) 1.15 µM | GI50 (HCT-15 colon) 1.66 µM | GI50 (K-562 leukemia) 1.28 µM | GI50 (OVCAR-4 ovarian) 1.49 µM | GI50 (RXF 393 renal) 1.5 µM | GI50 (TK-10 renal) 1.6 µM | GI50 (BT-549 breast) 1.24 µM | GI50 (MDA-MB-231 breast) 1.45 µM | GI50 (EKVX NSCLC) 1.51 µM | GI50 (SK-MEL-5 melanoma) 1.59 µM | GI50 (COLO 205 colon) 1.67 µM | GI50 (A498 renal) 1.42 µM | GI50 (SK-MEL-28 melanoma) 1.62 µM | GI50 (OVCAR-5 ovarian) 1.73 µM | GI50 (NCI-H522 lung) 1.55 µM | GI50 (A549 NSCLC) 1.28 µM | GI50 (DU-145 prostate) 1.81 µM | GI50 (SNB-19 CNS) 0.451 µM | GI50 (OVCAR-8 ovarian) 1.36 µM | GI50 (SF-268 CNS) 1.96 µM | GI50 (HS 578T breast) 1.31 µM | GI50 (786-0 renal) 1.65 µM | GI50 (HT29 colon) 2.3 µM | GI50 (SNB-75 CNS) 1.3 µM | GI50 (SW-620 colon) 1.43 µM | GI50 (NCI-H23 lung) 1.82 µM | GI50 (SN12C renal) 1.37 µM | GI50 (HOP-62 NSCLC) 0.762 µM | GI50 (HCT-116 colon) 0.49 µM | GI50 (SK-MEL-2 melanoma) 1.47 µM | GI50 (LOX IMVI melanoma) 1.47 µM | GI50 (OVCAR-3 ovarian) 1.89 µM | GI50 (SK-OV-3 ovarian) 1.36 µM | GI50 (HCC-2998 colon) 1.54 µM | GI50 (MCF7 breast) 1.46 µM | GI50 (ACHN renal) 1.51 µM | GI50 (KM12 colon) 1.26 µM | GI50 (UACC-62 melanoma) 1.51 µM | GI50 (M14 melanoma) 1.26 µM
active: GI50 (NCI-H460 lung) 0.364 µM | GI50 (HL-60(TB) leukemia) 0.255 µM
3.15 µM: TGI (COLO 205 colon)
2.66 µM: TGI (A549 NSCLC)
1.94 µM: TGI (U251 CNS)
2.87 µM: TGI (OVCAR-4 ovarian)
1.7 µM: TGI (HCT-116 colon)
2.84 µM: TGI (ACHN renal) | TGI (UACC-62 melanoma)
2.94 µM: TGI (SK-MEL-5 melanoma)
2.58 µM: TGI (M14 melanoma)
3.19 µM: TGI (SF-295 CNS)
2.95 µM: TGI (TK-10 renal)
3.22 µM: TGI (DU-145 prostate)
1.23 µM: TGI (HL-60(TB) leukemia)
3.24 µM: TGI (OVCAR-5 ovarian)
3 µM: TGI (MDA-MB-435)
2.41 µM: TGI (MALME-3M melanoma)
3.1 µM: TGI (HCC-2998 colon)
2.69 µM: TGI (HS 578T breast)
2.81 µM: TGI (HOP-62 NSCLC)
3.83 µM: TGI (A498 renal)
2.5 µM: TGI (BT-549 breast)
3.39 µM: TGI (SF-268 CNS)
1.32 µM: TGI (NCI-H460 lung)
2.51 µM: TGI (KM12 colon)
2.64 µM: TGI (SK-OV-3 ovarian)
3.3 µM: TGI (OVCAR-3 ovarian)
